Test results taken from patent US9850293B2, “Targeting trastuzumab-resistant HER2+ breast cancer with a HER3-targeting nanoparticle” (priority 2014, dated 2017).

Assays:
MDA-MB-231 (HER2−) = test: Targeted toxicity, cell survival by MTT assay; assay type: cell-based, human; conditions: 0.5 μM with respect to Dox; HerPBK10 0.1 μM; day 3
Procedure: (§1) FIG. 7 illustrates targeted toxicity. […] Cell titer was determined by metabolic (i.e. MTT) assay. FIG. 7 upper panel illustrates the effect of HerDox on MDA-MB-231 (HER2−) and MDA-MB-435 (HER2+) cell survival. Relative surviving cell numbers are represented as a % of corresponding untreated cells. […] Relative survival (as % of untreated cells) is shown for Day 3 of treatment.
(§2) N=3. […] Bar, about 4 μm. […] (E) compares HerDox and Dox on off-target tissue. […] Green fluorescence in nuclei indicates apoptosis (positive TUNEL stain).
(§3) By three days, HerDox reduced HER2+ cell numbers by over 75% whereas HER2− cell survival was unaffected (FIG. 7). […] These findings emphasize the importance of targeting by showing that the untargeted drug affects nontarget (i.e. HER2−) cells. […] To test receptor targeting, the inventors used free heregulin ligand (Her or eHRG) as a competitive inhibitor. […] As a final in vitro challenge, the inventors tested whether HerDox induces toxicity specifically to HER2+ cells in a mixed culture of HER2+ and HER2− breast cancer cells. To do this, the inventors produced a HER2− cell line tagged with green fluorescent protein (GFP) for cell identification in the mixed culture (FIG. 9-A). […] Altogether, these findings indicate that HerDox has the capacity to preferentially target toxicity to HER2+ cells. […] In serum-containing media, no such loss from HerDox is detectable. […] Co-migration of HerPBK10 bands further verified that the conjugates remained intact in the cell media.

MDA-MB-435 (HER2+) = test: Targeted toxicity, cell survival by MTT assay; assay type: cell-based, human; conditions: Dox 0.5 μM; HerPBK10 0.1 μM; day 3
Procedure: as §1
FIG. 8 illustrates receptor specificity. MDA-MB-435 (HER2+) cells were incubated with free ligand (eHRG) at 10× molar excess of HerDox for one hour at 4° C. Media was aspirated to remove free eHRG and fresh media containing HerDox (0.5 μM) was added to cells. Cell survival was measured by MTT assay and represented as a % of relative untreated cell numbers.
as §2, §3

JIMT-1 tumors = test: Trastuzumab-resistant tumor growth in vivo; set-up: species or system mouse; conditions: 0.004 mg Dox/kg/injection, twice-weekly IV
Procedure: (§4) Tumor volumes were measured by calipers. Day 0 corresponds to first day of treatment. N=10 tumors per treatment.
as §4
(§5) The efficacy of HerDox was also examined on a cell line with pre-existing resistance.
(§6) The contribution of HER3 to targeted toxicity was evaluated by assessing whether pre-adsorbing HerDox with a peptide comprising the ligand-binding domain of HER3 blocked cytotoxicity.

MDA-MB-435 cells = test: Intracellular translocation of HerDox and Dox (microscopy); assay type: cell-based, human
Procedure: Live (unfixed) cells were imaged by brightfield and fluorescence microscopy.
Live (unfixed) cells were imaged by DIC and confocal fluorescence microscopy.
FIG. 15 illustrates HerDox trafficking in breast cancer cells. Cells incubated with HerDox at 37° C. were fixed at the indicated time points and processed for immunofluorescence using an antibody against HerPBK10. Images were captured using confocal microscopy under fluorescence and brightfield. n, nucleus; Bar, ˜8 microns.

HER2+ tumors = test: HerDox and Dox biodistribution (Dox fluorescence imaging); conditions: tissues harvested ~3 h after injection
Description: FIG. 11 (A) depicts imaging of live mice after IV delivery of HerDox. Tumors are indicated by arrows.

JIMT-1 cell line = test: Tumor cell killing in culture, pre-existing resistance; assay type: cell-based, human; conditions: broad concentration range
Procedure: N=3. *, p<0.05 compared to parental. […] N=3. […] Treatments were compared to mock (saline)-treatment. […] N=3. *, p<0.05 compared to parental. […] N=3.
as §5, §6

[1] = test system: HER2+ tumors (MDA-MB-435); test: In vivo tumor toxicity (tumor growth); set-up: species or system mouse
[2] = Off-target toxicity in treated mice (weight, heart, liver)
Procedure: Relative cell survival (as % of untreated cells) on day 3 of treatment. (+Her), pre-incubation of MDA-MB-435 cells with receptor-blocking ligand (recombinant heregulin) before receiving HerDox. N=3. […] Tissues were harvested from independently injected mice euthanized at indicated time points after injection and fluorescence intensity/tissue acquired using a multimode imager. […] Bar, about 4 μm. […] Day 0=3 days before tail vein injections (mice received daily injections for 7 days). […] Day 0=3 days before tail vein injections (mice received daily injections for 7 days). […] Micrographs (20× magnification) in (E) also show representative H&E stained specimens of myocardia and immunofluorescent specimens of livers from treated mice. Green fluorescence in nuclei indicates apoptosis (positive TUNEL stain).

[3] = T-DM1; untargeted Dox in patients; cited from earlier work
TSPO = TSPO (Homo sapiens, UniProt P30536); test: S2Ga binding to recombinant TSPO (ultrafiltration, spectra); conditions: 1 μM
Procedure: (A) illustrates that S2Ga interacts with TSPO. […] Retentates were evaluated for the presence of protein-bound corrole by measuring the absorbance and fluorescence spectra. Where indicated, PK11195 was used as a competitive inhibitor for the porphyrin binding site on TSPO. (B) further illustrates that S2Ga interacts with TSPO. […] Retentates were evaluated for the presence of protein-bound corrole by measuring the absorbance and fluorescence spectra. Where indicated, PK11195 was used as a competitive inhibitor for the porphyrin binding site on TSPO. […] MDA-MB-435 cells were transfected with a plasmid expressing exogenous TSPO 24 hours before cells were treated with HerGa and examined for HerGa-mediated mitochondrial disruption, evidenced by reduced red fluorescent dye accumulation in mitochondria and accumulated green fluorescence in the cytoplasm.
TSPO translocates porphyrins and other metabolites into mitochondria for processing as well as interacts with components of the mitochondrial permeability transition pore complex, and is critical for cellular homeostasis, as knock-outs of TSPO are embryonic lethal in mice.

human HER2− tumor cells = test: HerMn toxicity, crystal violet survival; assay type: cell-based; conditions: 24 hours
Procedure: (§7) Each cell line received the indicated concentration of HerMn or S2Mn and was assessed for survival 24 hours later via crystal violet (CV) stain. N=3 per conc, from 3 separate experiments.

human HER2+ tumor cells = test: HerMn toxicity, crystal violet survival; assay type: cell-based; conditions: 24 hours
Procedure: as §7

SOD1 = test system: SOD1
Description: An in vitro assay measuring superoxide production from XOD−/+SOD.

TSPO, sequence (P30536 whole entry): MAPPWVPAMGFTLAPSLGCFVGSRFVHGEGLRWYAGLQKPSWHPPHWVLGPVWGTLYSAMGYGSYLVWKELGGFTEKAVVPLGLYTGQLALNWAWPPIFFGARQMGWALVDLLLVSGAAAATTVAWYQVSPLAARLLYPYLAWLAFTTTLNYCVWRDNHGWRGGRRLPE

COc1cccc2c1C(=O)c1c(O)c3c(c(O)c1C2=O)C[C@@](O)(C(=O)CO)C[C@@H]3O[C@H]1C[C@H](N)[C@H](O)[C@H](C)O1 [Dox, doxorubicin, reference compound]
effect on HER2− cell survival (MDA-MB-231 (HER2−)): reduced both HER2+ and HER2− cells by the same order of magnitude
effect on HER2+ cell survival (MDA-MB-435 (HER2+)): reduced both HER2+ and HER2− cells by the same order of magnitude
effect on JIMT-1 tumor growth (JIMT-1 tumors): only slight
intracellular location of Dox fluorescence (MDA-MB-435 cells; 0 min of uptake, 0.5 μM): already found inside the cell at the nuclear periphery
intranuclear pattern of Dox in live cells (MDA-MB-435 cells; confocal, live cells): accumulates in the cell nucleus
fluorescence in kidneys (HER2+ tumors): detectable fluorescence
fluorescence in liver (HER2+ tumors): detectable fluorescence
fluorescence in other tissues (heart, spleen, lungs, skeletal muscle) (HER2+ tumors): Lower levels of fluorescence were also detectable in the lungs and skeletal muscle
fluorescence in tumors (HER2+ tumors): detectable fluorescence
response of JIMT-1 cells (JIMT-1 cell line): only partially responsive
effect on tumor growth ([1]; 0.004 mg/kg with respect to Dox, daily tail vein injections for 7 days): slows tumor growth
dose eliciting tumor growth ablation / tumor cell death ([1]; mice, dose of Dox): more than 0.04 mg/kg
heart gross appearance ([2]; 25 days following injections): slightly enlarged and dilated
myocardium morphology (histochemistry) ([2]; 25 days following injections): focal degeneration, myofibrillar loss, increased cytosoplasmic vacuolization, and nuclear condensation or dissolution
cardiac function (echocardiograms) ([2]; mouse, in vivo): modest to marked reductions in stroke volume, cardiac output, and left ventricular internal dimension and volume
liver and heart toxicity ([2]; systemic delivery in vivo): causing liver tissue and myocardial damage

T-DM1
therapeutic dose required [3]: about 3.6 mg/kg

sulfonated gallium(III) corrole [S2Ga]
binding to TSPO with PK11195 (TSPO): competitively inhibited by PK11195
binding to TSPO (TSPO; ~20 min, room temperature): directly binds

sulfonated manganese(III) corrole [S2Mn]
toxicity to HER2− tumor cells (human HER2− tumor cells): no effect on cell survival
toxicity to HER2+ tumor cells (human HER2+ tumor cells): no effect on cell survival

sulfonated non-metallated free-base corrole [S2FB]
inhibition of SOD1 (SOD1): inhibit SOD activity
reduction of SOD activity (SOD1; 1 μM): about one-third
